The CheMixHub viscosity set
Where “and” joins values, the source holds several entries; their conditions need not be identical. Equal entries are not always repeated.

Assay: xn = mol fraction of the nth substance listed

CCCCCCCCCCCCO + CCCCCCCO
viscosity [mPa·s], 101.8 kPa
Conditions	x2 = 0.1535	x2 = 0.4063	x2 = 0.6158	x2 = 0.7897	x2 = 0.937
298.15 K	14.93	11.89	9.619	7.876	6.209
308.15 K	10.25	8.286	6.789	5.642	4.516
318.15 K	7.217	5.917	4.913	4.132	3.362

CCCCCCCCCCCCO + CCCCCCO
viscosity [mPa·s], 101.8 kPa
Conditions	x2 = 0.1701	x2 = 0.4377	x2 = 0.6449	x2 = 0.8097	x2 = 0.9429
298.15 K	14.45	10.7	8.172	6.334	5.053
308.15 K	9.897	7.517	5.841	4.64	3.754
318.15 K	6.978	5.411	4.279	3.455	2.829

Cc1ccc(C)cc1 + CCCCCCO
viscosity, 101 kPa
Conditions	x2 = 0.0999	x2 = 0.1999	x2 = 0.2999	x2 = 0.4001	x2 = 0.4997	x2 = 0.6	x2 = 0.7	x2 = 0.8	x2 = 0.8999
303.15 K	0.616 mPa·s and 0.616 mPa·s	0.693 mPa·s and 0.693 mPa·s	0.799 mPa·s and 0.799 mPa·s	0.946 mPa·s and 0.946 mPa·s	1.148 mPa·s and 1.148 mPa·s	1.42 mPa·s and 1.42 mPa·s	1.801 mPa·s and 1.801 mPa·s	2.323 mPa·s and 2.323 mPa·s	3.004 mPa·s and 3.004 mPa·s
313.15 K	0.544 mPa·s and 0.544 mPa·s	0.605 mPa·s and 0.605 mPa·s	0.689 mPa·s and 0.689 mPa·s	0.802 mPa·s and 0.802 mPa·s	0.956 mPa·s and 0.956 mPa·s	1.156 mPa·s and 1.156 mPa·s	1.433 mPa·s and 1.433 mPa·s	1.806 mPa·s and 1.806 mPa·s	2.295 mPa·s and 2.295 mPa·s
323.15 K	0.485 mPa·s and 0.485 mPa·s	0.533 mPa·s and 0.533 mPa·s	0.6 mPa·s and 0.6 mPa·s	0.689 mPa·s and 0.689 mPa·s	0.807 mPa·s and 0.807 mPa·s	0.958 mPa·s and 0.958 mPa·s	1.161 mPa·s and 1.161 mPa·s	1.433 mPa·s and 1.433 mPa·s	1.788 mPa·s and 1.788 mPa·s

Cc1ccc(C)cc1 + CCCCCO
293.15 K, 101.33 kPa
Conditions	viscosity [mPa·s]
x2 = 0.1458	0.727
x2 = 0.2275	0.792
x2 = 0.2722	0.836
x2 = 0.3455	0.925
x2 = 0.4093	1.022
x2 = 0.4819	1.164
x2 = 0.5534	1.356
x2 = 0.6142	1.543
x2 = 0.7185	1.973
x2 = 0.7687	2.232
x2 = 0.8498	2.747
x2 = 0.9425	3.494

O=Cc1ccccc1 + CCCCCO
viscosity [mPa·s], 101.33 kPa
Conditions	x1 = 0.1001	x1 = 0.2014	x1 = 0.3028	x1 = 0.4151	x1 = 0.5074	x1 = 0.599	x1 = 0.7004	x1 = 0.8063	x1 = 0.9052
293.15 K	3.688	3.307	2.964	2.626	2.377	2.153	1.93	1.722	1.547
303.15 K	2.699	2.481	2.281	2.078	1.924	1.783	1.639	1.501	1.383
313.15 K	2.149	2.007	1.874	1.737	1.632	1.534	1.432	1.334	1.247
323.15 K	1.279	1.254	1.229	1.202	1.181	1.16	1.137	1.113	1.092

CCCCCCCCN + CCCCN(CCCC)CCCC
viscosity [mPa·s], 101 kPa
Conditions	x2 = 0.1005	x2 = 0.202	x2 = 0.3961	x2 = 0.5022	x2 = 0.5949	x2 = 0.7991	x2 = 0.8964
303.15 K	1.149	1.138	1.126	1.125	1.127	1.14	1.151
313.15 K	0.9719	0.9612	0.9507	0.9506	0.9532	0.97	0.9821

Cc1ccc(C)cc1 + CCCCO
Conditions	viscosity [mPa·s]
298.15 K, 101.33 kPa, x2 = 0.1504	0.636
298.15 K, 101.33 kPa, x2 = 0.2649	0.692
298.15 K, 101.33 kPa, x2 = 0.3971	0.797
298.15 K, 101.33 kPa, x2 = 0.5009	0.914
298.15 K, 101.33 kPa, x2 = 0.585	1.047
298.15 K, 101.33 kPa, x2 = 0.6932	1.275
298.15 K, 101.33 kPa, x2 = 0.7688	1.493
308.15 K, 101 kPa, x2 = 0.0495	0.551
308.15 K, 101 kPa, x2 = 0.1136	0.553
308.15 K, 101 kPa, x2 = 0.206	0.562
308.15 K, 101 kPa, x2 = 0.3224	0.592
308.15 K, 101 kPa, x2 = 0.4051	0.647
308.15 K, 101 kPa, x2 = 0.5098	0.724
308.15 K, 101 kPa, x2 = 0.6322	0.796
308.15 K, 101 kPa, x2 = 0.7241	0.937
308.15 K, 101 kPa, x2 = 0.8216	1.118
308.15 K, 101 kPa, x2 = 0.9035	1.327
308.15 K, 101 kPa, x2 = 0.9621	1.619

O=C(O)CCC(=O)O + CCCCO
101 kPa
Conditions	viscosity [mPa·s]
308.15 K, x1 = 0.0162	2.167
313.15 K, x1 = 0.0162	1.91
318.15 K, x1 = 0.0162	1.704
318.15 K, x1 = 0.017	1.704
318.15 K, x1 = 0.035	1.848
318.15 K, x1 = 0.0435	1.943
318.15 K, x1 = 0.047	1.943
323.15 K, x1 = 0.0162	1.51
323.15 K, x1 = 0.0435	1.726

O=C(O)c1ccccc1C(=O)O + CCCCO
viscosity [mPa·s]
Conditions	308.15 K	313.15 K	318.15 K	323.15 K
101 kPa, x1 = 0.021	–	–	1.806	1.604
101 kPa, x1 = 0.032	–	–	1.928	1.712
101 kPa, x1 = 0.039	–	–	1.985	1.78
101.33 kPa, x1 = 0.021	2.302	2.033	1.806	1.604
101.33 kPa, x1 = 0.032	–	2.18	1.928	1.712

O=Cc1ccccc1 + CCCCO
viscosity [mPa·s], 101.33 kPa
Conditions	x1 = 0.1021	x1 = 0.2004	x1 = 0.3089	x1 = 0.4057	x1 = 0.4992	x1 = 0.6014	x1 = 0.6982	x1 = 0.8044	x1 = 0.9027
293.15 K	2.662	2.48	2.294	2.14	2.001	1.86	1.735	1.608	1.498
303.15 K	2.143	2.025	1.903	1.799	1.705	1.608	1.521	1.43	1.352
313.15 K	1.62	1.563	1.503	1.451	1.403	1.352	1.305	1.256	1.212
323.15 K	1.088	1.086	1.084	1.082	1.081	1.079	1.077	1.075	1.074
